Four compounds from US5658910A, “Nicotinic acid esters” (Pharmacia AB, priority 1992, dated 1997) can be followed below.

For orientation: Ki means a dissociation constant, usually derived from enzyme kinetics or from competition with a known ligand. Low readings indicate a stronger hold on the target, high ones a looser hold on the target.

In experiment [1] the target is T1, 5HT1A-receptors (Bos taurus, UniProt F6Q2H9).
T1 construct: from tissue
T1 sequence (F6Q2H9 1-422): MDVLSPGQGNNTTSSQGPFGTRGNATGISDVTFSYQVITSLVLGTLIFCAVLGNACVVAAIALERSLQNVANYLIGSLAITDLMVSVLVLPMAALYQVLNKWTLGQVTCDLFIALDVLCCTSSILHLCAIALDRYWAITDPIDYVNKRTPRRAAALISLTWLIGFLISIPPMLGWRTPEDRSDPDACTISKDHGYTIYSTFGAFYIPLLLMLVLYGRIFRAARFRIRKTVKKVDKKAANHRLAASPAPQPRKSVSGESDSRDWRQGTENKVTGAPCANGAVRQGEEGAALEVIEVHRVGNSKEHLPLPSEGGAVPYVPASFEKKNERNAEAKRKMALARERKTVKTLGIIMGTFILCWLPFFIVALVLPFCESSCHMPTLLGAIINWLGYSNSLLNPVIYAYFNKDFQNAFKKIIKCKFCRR
In words: Affinity for 5HT1A-receptors (Test 2, Peroutka binding assay).

The target in experiment [2] is T2, 5HT2-receptors (Rattus norvegicus, UniProt P14842).
T2 construct: from tissue
In words: Affinity for 5HT2-receptors (Test 1, 3H-ketanserin binding, Leysen et al.). The following applies: 3H-ketanserin as ligand. The method, then: Test 1. Affinity for 5HT2-receptors
The binding assay was carried out essentially as described by Leysen et al., (Mol. Pharmcol. 21, 301-314, 1982) using 3 H-kezanserine as ligand.

Where a name gives a salt, the structure may show the parent alone.

T2 sequence (P14842 whole entry): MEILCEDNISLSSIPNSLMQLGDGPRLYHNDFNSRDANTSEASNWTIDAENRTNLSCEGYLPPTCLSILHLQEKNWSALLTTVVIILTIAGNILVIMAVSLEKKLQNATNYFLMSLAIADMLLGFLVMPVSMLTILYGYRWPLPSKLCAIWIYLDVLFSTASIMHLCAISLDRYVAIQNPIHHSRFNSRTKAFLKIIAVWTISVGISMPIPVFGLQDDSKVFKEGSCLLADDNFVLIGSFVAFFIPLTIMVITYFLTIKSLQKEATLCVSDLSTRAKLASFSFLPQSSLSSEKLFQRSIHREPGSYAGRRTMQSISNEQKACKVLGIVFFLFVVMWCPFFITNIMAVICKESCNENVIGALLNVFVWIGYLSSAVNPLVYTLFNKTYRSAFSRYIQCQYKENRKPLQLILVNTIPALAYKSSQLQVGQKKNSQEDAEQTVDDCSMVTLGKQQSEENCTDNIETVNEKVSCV

For `CCOC(=O)c1cccnc1N1CCN(CCCC(c2ccc(F)cc2)c2ccc(F)cc2)CC1` [2:1, 3-Pyridinecarboxylic acid (2-(4-(4,4-bis(4-fluorophenyl)butyl)-1-piperazinyl-)ethyl ester hydrochloride], the Ki was 1.2 nM in experiment [1] and 5.7 nM in experiment [2].

Turning to `COC(=O)c1cccnc1N1CCN(CCCC(c2ccc(F)cc2)c2ccc(F)cc2)CC1` [2:4, 1-[4,4 -Bis(p-fluorophenyl)butyl]-4-(3-methoxycarbonyl-2-pyridyl)-piperazine, hydrochloride], the Ki came out at 0.7 nM in experiment [1] and 4 nM in experiment [2]. Taken in the same sequence, the figures for `CC(C)CCOC(=O)c1cccnc1N1CCN(CCCC(c2ccc(F)cc2)c2ccc(F)cc2)CC1` [2:7, 1-[4,4-Bis(p-fluorophenyl)butyl]-4-(3-isoamyloxycarbonyl-2-pyridyl)-piperazine, hydrochloride] were 14 nM and 2.7 nM. For the compound `O=C(OCc1ccccn1)c1cccnc1N1CCN(CCCC(c2ccc(F)cc2)c2ccc(F)cc2)CC1` [2:10, 1-[4,4-Bis(p-fluorophenyl)butyl]-4-[3-(2-pyridinylmethoxycarbonyl)-2-pyridyl]-piperazine, hydrochloride], the affinity in experiment [2] corresponds to a Ki of 0.6 nM.
